Results published in PubChem BioAssay (NCI).
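Interpolation was linear, between the two tested concentrations surrounding the appropriate level; five concentrations were tested over 48 hours in 96-well plates. TGI is the concentration that stops growth completely.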

Legend:
Assay in all cases: growth of human tumour cells (NCI), 48 h
[1] = tested on: CCRF-CEM leukemia
[2] = tested on: SK-MEL-5 melanoma
[3] = tested on: SK-MEL-28 melanoma
[4] = tested on: HCT-15 colon
[5] = tested on: A549 NSCLC
[6] = tested on: SNB-75 CNS
[7] = tested on: K-562 leukemia
[8] = tested on: LOX IMVI melanoma
[9] = tested on: SNB-78 CNS
[10] = tested on: DLD-1 colon
[11] = tested on: HCC-2998 colon
[12] = tested on: RPMI-8226 leukemia
[13] = tested on: OVCAR-4 ovarian
[14] = tested on: MALME-3M melanoma
[15] = tested on: NCI-H226 lung
[16] = tested on: UACC-257 melanoma
[17] = tested on: SK-OV-3 ovarian
[18] = tested on: SK-MEL-2 melanoma
[19] = tested on: UACC-62 melanoma
[20] = tested on: NCI-H460 lung
[21] = tested on: SNB-19 CNS
[22] = tested on: SF-268 CNS
[23] = tested on: HOP-92 NSCLC
[24] = tested on: ACHN renal
[25] = tested on: NCI-H522 lung
[26] = tested on: SF-295 CNS
[27] = tested on: DMS 273 small cell lung
[28] = tested on: SF-539 CNS
[29] = tested on: HL-60(TB) leukemia
[30] = tested on: XF 498 CNS
[31] = tested on: HOP-18 NSCLC
[32] = tested on: OVCAR-8 ovarian
[33] = tested on: EKVX NSCLC
[34] = tested on: OVCAR-3 ovarian
[35] = tested on: LXFL 529 NSCLC
[36] = tested on: M19-MEL melanoma
[37] = tested on: HT29 colon
[38] = tested on: RXF 393 renal
[39] = tested on: COLO 205 colon
[40] = tested on: U251 CNS
[41] = tested on: SW-620 colon
[42] = tested on: KM12 colon
[43] = tested on: MOLT-4 leukemia
[44] = tested on: 786-0 renal
[45] = tested on: OVCAR-5 ovarian
[46] = tested on: UO-31 renal
[47] = tested on: HCT-116 colon
[48] = tested on: NCI-H23 lung
[49] = tested on: CAKI-1 renal
[50] = tested on: A498 renal
[51] = tested on: DMS 114 small cell lung
[52] = tested on: SN12C renal
[53] = tested on: TK-10 renal
[54] = tested on: KM20L2 colon
[55] = tested on: M14 melanoma
[56] = tested on: IGROV1 ovarian

C=CCNC(=S)/N=C/c1c(O)c2ccccc2oc1=O
TGI [1]: > 100 µM
TGI [2]: > 100 µM
TGI [3]: > 100 µM
TGI [4]: > 100 µM
TGI [5]: > 100 µM
TGI [6]: > 100 µM
TGI [7]: > 100 µM
TGI [8]: > 100 µM
TGI [9]: > 100 µM
TGI [10]: > 100 µM
TGI [11]: > 100 µM
TGI [12]: > 100 µM
TGI [13]: > 100 µM
TGI [14]: 96 µM
TGI [15]: > 100 µM
TGI [16]: > 100 µM
TGI [17]: > 100 µM
TGI [18]: > 100 µM
TGI [19]: > 100 µM
TGI [20]: > 100 µM
TGI [21]: > 100 µM
TGI [22]: > 100 µM
TGI [23]: > 100 µM
TGI [24]: > 100 µM
TGI [25]: > 100 µM
TGI [26]: > 100 µM
TGI [27]: > 100 µM
TGI [28]: > 100 µM
TGI [29]: > 100 µM
TGI [30]: > 100 µM
TGI [31]: > 100 µM
TGI [32]: > 100 µM
TGI [33]: > 100 µM
TGI [34]: > 100 µM
TGI [35]: > 100 µM
TGI [36]: > 100 µM
TGI [37]: > 100 µM
TGI [38]: 85.8 µM
TGI [39]: > 100 µM
TGI [40]: > 100 µM
TGI [41]: > 100 µM
TGI [42]: > 100 µM
TGI [43]: > 100 µM
TGI [44]: > 100 µM
TGI [45]: > 100 µM
TGI [46]: > 100 µM
TGI [47]: > 100 µM
TGI [48]: > 100 µM
TGI [49]: 82.6 µM
TGI [50]: > 100 µM
TGI [51]: > 100 µM
TGI [52]: > 100 µM
TGI [53]: > 100 µM
TGI [54]: > 100 µM
TGI [55]: > 100 µM
TGI [56]: > 100 µM
